{"source": "patent US6268537A", "about": "“Method of synthesis of lithium substituted borohydride reagents and method of synthesis of reactive lithium hydride” (priority 1999, dated 2001)", "assay": "solubility of LiH in THF", "settings": "room temperature", "data": [{"smiles": "[H-].[Li+]", "note": "[LiH, lithium hydride]", "values": [{"measurement": "solubility of LiH in THF", "result": "less than 0.00089 mol per liter"}]}]}
